Test results from patent US20140371069A1, “Short-Chain Alkyl Sulfonates in Pesticide Formulations and Applications” (priority 2011, published 2014).
Like-named read-outs stand apart in the source and are kept apart here.

Experiments:
[1] = Separation of the formulations on standing at room temperature (ternary diagram); format: physicochemical; settings: for region of stability (blue region) in ternary diagram of percentage of separation: glufosinate ammonium 25.8%, C8 ether sulfate 30.6%, hydrotrope 0-10%, propylene glycol 0-15% w/w
Method: A design experiment was performed in which pesticide formulations containing the following were prepared: [table] The formulations were allowed to sit for 24 hours at room temperature and the stability of the formulations was assessed. FIG. 1 illustrates the results of the experiment. FIG. 1 is a ternary diagram showing regions of varying percentages of separation after 24 hours at room temperature of the formulations containing the above-listed components. The numbers associated with the small colored bar in the upper left hand corner of the figure indicate the percentage of separation in the samples. The colors in the bar correspond to the colored regions in the ternary diagram. […] An experiment was performed in which pesticide formulations containing the following were prepared: [table] The formulations were allowed to sit for two hours at room temperature and the stability of the formulations was assessed. FIG. 3 illustrates the results of the experiment. FIG. 3 is a ternary diagram showing regions of varying percentages of separation after two hours at room temperature of the formulations containing the above-listed components.

[2] = Stability of pesticide formulation containing glufosinate-ammonium and C8 ether sulfate at 1:1 weight ratio with test hydrotrope
Text: Specifically, the pesticide active in the pesticide formulation is glufosinate-ammonium and the adjuvant is C8 ether sulfate.

[3] = Separation of the formulations after one freeze/thaw cycle (ternary diagram); format: physicochemical; settings: FIG. 2 versus FIG. 4
Method: The formulations listed in Example 1 were subjected to a freeze/thaw cycle in which the formulations were frozen and thawed to room temperature. The stability of the formulations was then assessed. FIG. 2 illustrates the results of the assessment. FIG. 2 is a ternary diagram showing regions of varying percentages of separation after one freeze/thaw cycle of the formulations.
A freeze/thaw cycle changes the solubility of some of the components, therefore, by subjecting the formulations to a freeze/thaw cycle, the effect of the solubility change on the stability of the formulations can be assessed.
The formulations listed in Comparative Example 1 were subjected to a freeze/thaw cycle and the stability of the formulations was subsequently assessed. FIG. 4 illustrates the results of the assessment. FIG. 4 is a ternary diagram showing regions of varying percentages of separation after one freeze/thaw cycle of the formulations.

[4] = glufosinate-ammonium and C8 ether sulfate at 1:1 weight ratio
[5] = after 24 hours at room temperature, FIG. 1

Compound	stability of the pesticide formulation containing the material as hydrotrope [2, 4]	stability of the pesticide formulation containing the material as hydrotrope [2]	also measured
sodium xylene sulfonate	developed two phases that separated very quickly	–	region of stability (blue region) in ternary diagram of percentage of separation ([1]; after two hours at room temperature, FIG. 3): small
CCCCCCCCS(=O)(=O)[O-].[Na+] [sodium octane sulfonate]	–	–	effectiveness as a hydrotrope in the formulations [1, 5]: effective as a hydrotrope; region of stability (blue region) in ternary diagram of percentage of separation [1, 5]: large; effectiveness as a hydrotrope compared with sodium xylene sulfonate ([1]; room temperature, FIG. 1 (24 hours) versus FIG. 3 (two hours)): significantly more effective as a hydrotrope than sodium xylene sulfonate; effectiveness as a hydrotrope compared with sodium xylene sulfonate [3]: more effective as a hydrotrope than sodium xylene sulfonate
COC(C)COC(C)CO (stereo not drawn) [dipropylene glycol monomethyl ether]	–	developed two phases that separated very quickly	–
CC(O)CO (stereo not drawn) [propylene glycol]	developed two phases that separated very quickly	–	–
CC(C)c1ccc(S(=O)(=O)[O-])cc1.[Na+] [sodium cumene sulfonate]	developed two phases that separated very quickly	–	–
C4 alcohol+4EO sulfate esters sodium salt	–	developed two phases that separated very quickly	–
C6 alcohol+4EO sodium salt	–	developed two phases that separated very quickly	–
C4 alcohol+2EO sulfate ester sodium salt	–	developed two phases that separated very quickly	–
